In brackets after ≈: the same amount, converted by molar mass.
Test system: Staphylococcus aureus Smith
Assay: MIC assay, modified agar dilution (CLSI), S. aureus Smith
Type: cell-based
Conditions: Staphylococcus aureus, agar dilution, 35° C., 16-20 hr; lowest concentration that completely inhibited growth; read-out: S_aureus_Smith_WT_MIC
Procedure: The potency of antibacterial agents was measured using the Minimal Inhibitory Concentration (MIC) assay. The assay measures the ability of test agents to inhibit the growth of bacteria on agar-containing medium.
The bacterial test strains used were exemplified by Staphylococcus aureus Smith, Enterococcus faecium A2373, Streptococcus pneumoniae IID554, and Escherichia coli ATCC 25922. All strains were maintained as frozen stocks held at −80° C. in skim milk. Other bacterial test strains are well known to those skilled in the art and can be used for testing.
Mueller Hinton Agar (MHA BBL; Becton Dickinson and Company, Sparks, Md.) was used as the medium. MHA was supplemented with 5% defibrinated horse blood (DHB; Nippon Biotest Laboratories inc.) to support the growth of S. pneumoniae and E. faecium.
MIC values were determined using a modified agar dilution procedure described by the Clinical and Laboratory Standards Institute (CLSI; Methods for Dilution Antimicrobial Susceptibility Tests for Bacteria That Grow Aerobically; Approved Standard—Eighth Edition. CLSI document M07-A8 [ISBN 1-56238-689-1]. Clinical and Laboratory Standards Institute, 940 West Valley Road, Suite 1400, Wayne, Pa. 19087-1898 USA, 2009).
Stock solutions (6.4 mgmL) of test compounds were prepared in 100% ultrapure dimethyl sulfoxide (DMSO; source) on the day of the assay. Subsequent serial dilutions were performed to generate solutions with concentrations ranging from 6.4 to 0.0002 mgmL in 100% DMSO.
Agar medium containing test compound was prepared by adding the dilutions of antimicrobial solution to molten MHA at a temperature of 45-50° C. The agar and antimicrobial solution were mixed thoroughly, poured into petri dishes, and allowed to solidify at room temperature. The final concentration of test compounds in the MHA medium ranged from 128 to 0.001 μg/mL with two-fold dilutions. MHA plates lacking antibacterial compound were used for growth controls.
Prior to susceptibility testing, the bacterial isolates were removed from frozen storage, thawed at room temperature, sub-cultured to MHA medium and incubated overnight at 35° C. S. pneumoniae and E. faecium were subcultured on MHA supplemented with 5% DHB at 35° C. with […]. Colonies from each plate were suspended in normal saline. This suspension was adjusted to the turbidity of a 0.5 McFarland standard, 1-2×10^8 colony forming units (CFU) per mL, and diluted 100-fold to 1-2×10^6 CFUmL.
Suspensions of bacterial cultures were applied to the surface of MHA plates containing test compound as well as to a growth control plate lacking test compound using an inoculum-replicating device with 4 mm pins. The replicating device applied 5 uL of the bacterial suspension such that each spot contained approx. 1×10^4 CFU. Plates were dried for about 40 min and incubated at 35° C. for 16-20 hr prior to scoring.

Row | Structure (SMILES) | MIC [µg/mL]
1 | COc1ccc2ncc(Cl)c(CCC34CCC(NCc5ccc6c(n5)NC(=O)CO6)(CC3)CC4)c2n1.Cl [Example 5, 6-((4-(2-(3-Chloro-6-methoxy-1,5-naphthyridin-4-yl)ethyl)bicyclo[2.2.2]octan-1-ylamino)methyl)-2H-pyrido[3,2-b][1,4]oxazin-3(4H)-one Hydrochloride] | 0.031
2 | COc1ccc2ncc(Cl)c(C#CC34CCC(NCc5ccc6c(n5)NC(=O)CO6)(CC3)CC4)c2n1.Cl [Example 6, 6-((4-((3-Chloro-6-methoxy-1,5-naphthyridin-4-yl)ethynyl)bicyclo[2.2.2]octan-1-ylamino)methyl)-2H-pyrido[3,2-b][1,4]oxazin-3(4H)-one Hydrochloride] | 0.031
3 | O=C1COc2ccc(CNC34CCC(/C=C\c5c(Cl)cnc6ccc(O)nc56)(CC3)CC4)nc2N1 [Example 7, (Z)-6-((4-(2-(3-Chloro-6-hydroxy-1,5-naphthyridin-4-yl)vinyl)bicyclo[2.2.2]octan-1-ylamino)methyl)-2H-pyrido[3,2-b][1,4]oxazin-3(4H)-one] | 0.5 (≈ 1.02 µM)
4 | COc1ccc2ncc(Cl)c(/C=C\C34CCC(NCc5ccc6c(n5)NC(=O)CO6)(CC3)CC4)c2n1 [Example 8, (Z)-6-((4-(2-(3-Chloro-6-methoxy-1,5-naphthyridin-4-yl)vinyl)bicyclo[2.2.2]octan-1-ylamino)methyl)-2H-pyrido[3,2-b][1,4]oxazin-3(4H)-one] | 0.5 (≈ 0.988 µM)
5 | O=C1COc2ccc(CNC34CCC(CCc5c(Cl)cnc6ccc(O)nc56)(CC3)CC4)nc2N1 [Example 9, 6-((4-(2-(3-Chloro-6-hydroxy-1,5-naphthyridin-4-yl)ethyl)bicyclo[2.2.2]octan-1-ylamino)methyl)-2H-pyrido[3,2-b][1,4]oxazin-3(4H)-one] | 0.125 (≈ 0.253 µM)
6 | COc1ccc2ncc(Cl)c(/C=C/C34CCC(NCc5ccc6c(n5)NC(=O)CO6)(CC3)CC4)c2n1.Cl [Example 10, (E)-6-((4-(2-(3-Chloro-6-methoxy-1,5-naphthyridin-4-yl)vinyl)bicyclo[2.2.2]octan-1-ylamino)methyl)-2H-pyrido[3,2-b][1,4]oxazin-3(4H)-one Hydrochloride] | 0.016
7 | Cc1cccc2sc(C(=O)C34CCC(NCc5ccc6c(n5)NC(=O)CO6)(CC3)CC4)nc12 [Example 11, 6-((4-(4-Methylbenzo[d]thiazole-2-carbonyl)bicyclo[2.2.2]octan-1-ylamino)methyl)-2H-pyrido[3,2-b][1,4]oxazin-3(4H)-one] | 2 (≈ 4.32 µM)
8 | COc1ccc2ncc(F)c(CCC34CCC(NCc5ccc6c(n5)NC(=O)CO6)(CC3)C4)c2n1 [Example 12, 6-((4-(2-(3-Fluoro-6-methoxy-1,5-naphthyridin-4-yl)ethyl)bicyclo[2.2.1]heptan-1-ylamino)methyl)-2H-pyrido[3,2-b][1,4]oxazin-3(4H)-one] | 0.25 (≈ 0.524 µM)
9 | COc1ccc2ncc(Cl)c(OCC34CCC(NCc5ccc6c(n5)NC(=O)CO6)(CC3)CC4)c2n1 [Example 15, 6-((4-((3-Chloro-6-methoxy-1,5-naphthyridin-4-yloxy)methyl)bicyclo[2.2.2]octan-1-ylamino)methyl)-2H-pyrido[3,2-b][1,4]oxazin-3(4H)-one] | 0.031 (≈ 0.0608 µM)
10 | COc1ccc2ncc(Cl)c(CCC34CCC(NCc5ccc6c(n5)NC(=O)CO6)(CC3)CO4)c2n1.Cl [Example 16, 6-((1-(2-(3-Chloro-6-methoxy-1,5-naphthyridin-4-yl)ethyl)-2-oxabicyclo[2.2.2]octan-4-ylamino)methyl)-2H-pyrido[3,2-b][1,4]oxazin-3(4H)-one Hydrochloride] | 0.016
11 | COc1ccc2nccc(CCC34CCC(NCc5ccc6c(n5)NC(=O)CO6)(CC3)CO4)c2n1.Cl [Example 17, 6-((1-(2-(6-Methoxy-1,5-naphthyridin-4-yl)ethyl)-2-oxabicyclo[2.2.2]octan-4-ylamino)methyl)-2H-pyrido[3,2-b][1,4]oxazin-3(4H)-one Hydrochloride] | 0.031
12 | COc1ccc2ncc(F)c(/C=C/C34CCC(NCc5ccc6c(n5)NC(=O)CO6)(CC3)CO4)c2n1 [Example 19, (E)-6-((1-(2-(3-Fluoro-6-methoxy-1,5-naphthyridin-4-yl)vinyl)-2-oxabicyclo[2.2.2]octan-4-ylamino)methyl)-2H-pyrido[3,2-b][1,4]oxazin-3(4H)-one] | 0.008 (≈ 0.0163 µM)
13 | COc1ccc2ncc(F)c(CC(OC)C34CCC(NCc5ccc6c(n5)NC(=O)CO6)(CC3)CO4)c2n1.Cl (centres unmarked) [Example 22, 6-((1-(2-(3-Fluoro-6-methoxy-1,5-naphthyridin-4-yl)-1-methoxyethyl)-2-oxabicyclo[2.2.2]octan-4-ylamino)methyl)-2H-pyrido[3,2-b][1,4]oxazin-3(4H)-one Hydrochloride] | 0.25
14 | COc1ccc2ncc(F)c(CC(=O)C34CCC(NCc5ccc6c(n5)NC(=O)CO6)(CC3)CO4)c2n1 [Example 23, 6-((1-(2-(3-Fluoro-6-methoxy-1,5-naphthyridin-4-yl)acetyl)-2-oxabicyclo[2.2.2]octan-4-ylamino)methyl)-2H-pyrido[3,2-b][1,4]oxazin-3(4H)-one] | 0.125 (≈ 0.246 µM)
15 | COc1ccc2ncc(F)c(CCC34CCC(NCc5nc6ccccc6n(C)c5=O)(CC3)CO4)c2n1 [Example 24, 3-((1-(2-(3-Fluoro-6-methoxy-1,5-naphthyridin-4-yl)ethyl)-2-oxabicyclo[2.2.2]octan-4-ylamino)methyl)-1-methylquinoxalin-2(1H)-one] | 4 (≈ 7.94 µM)
16 | O=C1COc2ccc(CNC34CCC(CCc5c(F)cnc6ccc(N7CCOCC7)nc56)(CC3)OC4)nc2N1 [Example 28, 6-((1-(2-(3-Fluoro-6-morpholino-1,5-naphthyridin-4-yl)ethyl)-2-oxabicyclo[2.2.2]octan-4-ylamino)methyl)-2H-pyrido[3,2-b][1,4]oxazin-3(4H)-one] | 0.5 (≈ 0.911 µM)
17 | CN(C)c1ccc2ncc(F)c(CCC34CCC(NCc5ccc6c(n5)NC(=O)CO6)(CC3)CO4)c2n1 [Example 29, 6-((1-(2-(6-(Dimethylamino)-3-fluoro-1,5-naphthyridin-4-yl)ethyl)-2-oxabicyclo[2.2.2]octan-4-ylamino)methyl)-2H-pyrido[3,2-b][1,4]oxazin-3(4H)-one] | 0.25 (≈ 0.494 µM)
18 | Nc1ccc2ncc(F)c(CCC34CCC(NCc5ccc6c(n5)NC(=O)CO6)(CC3)CO4)c2n1 [Example 30, 6-((1-(2-(6-Amino-3-fluoro-1,5-naphthyridin-4-yl)ethyl)-2-oxabicyclo[2.2.2]octan-4-ylamino)methyl)-2H-pyrido[3,2-b][1,4]oxazin-3(4H)-one] | 2 (≈ 4.18 µM)
19 | N#Cc1ccc2ncc(F)c(CCC34CCC(NCc5ccc6c(n5)NC(=O)CO6)(CC3)CO4)c2n1 [Example 31, 7-Fluoro-8-(2-(4-((3-oxo-3,4-dihydro-2H-pyrido[3,2-b][1,4]oxazin-6-yl)methylamino)-2-oxabicyclo[2.2.2]octan-1-yl)ethyl)-1,5-naphthyridine-2-carbonitrile] | 0.063 (≈ 0.129 µM)
20 | CCOC(=O)COc1ccc2ncc(F)c(CCC34CCC(NCc5ccc6c(n5)NC(=O)CO6)(CC3)CO4)c2n1 [Example 32, Ethyl 2-(7-Fluoro-8-(2-(4-((3-oxo-3,4-dihydro-2H-pyrido[3,2-b][1,4]oxazin-6-yl)methylamino)-2-oxabicyclo[2.2.2]octan-1-yl)ethyl)-1,5-naphthyridin-2-yloxy)acetate] | 0.25 (≈ 0.442 µM)

Source: patent US20140243302A1, “BRIDGED BICYCLIC COMPOUNDS FOR THE TREATMENT OF BACTERIAL INFECTIONS” (priority 2011, published 2014)
